From paper PMC8661032, “Broad-Spectrum Antibacterial Peptide Kills Extracellular and Intracellular Bacteria Without Affecting Epithelialization” (Frontiers in Microbiology, 2021)
Values after ≈ are worked out from the molar mass of the structure shown. Residues, ends and D or L forms follow the SMILES beside them.

Columns and labels:
[1] = system: E. coli; experiment: Rifampicin (RifR) mutagenesis assay after UV-C; format: cell-based, Escherichia coli; conditions: 20 μg/ml peptide, UV-C 20 mJ/cm^2, RifR assay, relative to untreated control
Description: The rifampicin (Rif^R) mutagenesis assay was performed as described ([Nedal et al., 2020]). Briefly, an overnight culture of E. coli was diluted 1:1,000 and grown until an OD600 of 0.01. APIM-peptides (20 μg/ml) were added to LB media with glass beads (for uniform distribution of APIM-peptides) and incubated for 30 min at 37°C. The pellets were next collected, resuspended in 500 μl PBS, and exposed to UV-C (20 mJ/cm^2) in a six-well plate at 4°C. The unexposed bacteria (-UV) were otherwise handled exactly like the UV-exposed bacteria. Next, the cells were resuspended in LB media and incubated in a rotary shaker at 37°C at 250 rpm for 2 h before being harvested, diluted, and plated on LB with soft agar with and without rifampicin (100 μg/ml). Mutation frequency, Rif^R/10^8, is obtained as follows: (number of colonies on the rifampicin plate (Rif^R)/(number of colonies on LB plates without antibiotics), per milliliter of bacterial suspension. […]
mutagenesis in E. coli more efficiently than the other peptide variants.
Increase in mutation frequencies after treatment with UV-C (20 mJ/cm2) relative to spontaneous mutations frequencies using the RifR assay were determined. This increase is set to 100% for untreated control, and % reduction after addition of peptides 1-5 (20 μg/mL) are shown. Mean ± SD from three independent experiments. * p<0.05, ** p<0.005

[2] = system: bacteria; experiment: MIC comparisons between peptide variants (bacterium not stated); format: cell-based; conditions: betatide compared to ATX-101
[3] = system: HaCaT cells
[4] = system: E. coli; experiment: Growth inhibition assay (OD600 over 24 h); format: cell-based, Escherichia coli; design: Reduction of viability E. coli (60 μg/ml): key to the marks not given beside the values; conditions: LB medium
Description: An overnight culture of Escherichia coli was diluted 1:100 in Luria-Bertani (LB) medium and allowed to grow until an optical density (OD) at 600 nm (OD600) of 0.06–0.1. APIM-peptides were prepared by serial dilution in Milli-Q H2O and kept at 4°C. Fresh LB medium (60 μl) was added to a flat-bottom microtiter plate. The bacterial suspension was diluted 1:100 in LB, and 75 μl of this suspension was added to the wells. Finally, 15 μl of APIM-peptide solution (to final concentrations 60, 120, and 240 μg/ml) or distilled water (positive control) was added to the wells, reaching a total volume of 150 μl per well. Data are presented only for the dose that separated the effect of the different peptides, i.e., 60 μg/ml. A blank sterile medium was used as negative control. The plates were incubated with shaking at 510 rpm at 37°C inside a plate reader (TECAN, Spark®), and OD was read every hour over a period of 24 h.
The MIC for E. coli in LB medium is higher than that in CAMHB; thus, concentrations higher than the MIC given in Table 2 are used in the growth inhibition and mutagenesis assays. […]
E. coli. Growth of E. coli in LB medium over 24 hours (Optical Density (OD) 600 nm) after addition
of APIM-peptide variants 1-5 (60 µg/mL) at time t=0 (see Table 2). Negative (-) control is no
bacteria added, positive (+) control is untreated bacteria.
highest inhibition of growth.
control (black filled line).

[5] = system: intracellular S. aureus ATCC 29213 in HaCaT cells; experiment: Intracellular infection model; format: cell-based, Staphylococcus aureus
Description: The intracellular infection model used was modified from [Iqbal et al. (2016)] by optimizing the number of multiplicity of infection (MOI: number of bacteria per cell) and time of infection. Briefly, HaCaT cells (6.5 × 10^4/well) were seeded in 24-well plates and incubated overnight in a medium without antibiotics. The next day, approximately 1.25 × 10^5 cells/well were infected with S. aureus at an MOI of 100 in antibiotic-free media. The plates were incubated for 3 h. […] After 16 h of incubation, the extracellular media (100 μl) from each well were plated to confirm the eradication of extracellular S. aureus. Next, the cells were washed 2× with 500 μl PBS before they were lysed with 0.2% Triton-X (500 μl) for 30 min at room temperature. The lysed samples were placed on ice, and 500 μl cold Tryptic Soy Broth was added before they were plated on blood agar plates.

[6] = system: Cpx mutant E. coli cells; conditions: Cpx mutant E. coli cells with constitutive active Cpx response; ref Frimodt-Moller et al., 2021; cited from earlier work
Source text: This, in turn, can reduce the fitness of the bacteria, similar to what has been shown for another peptide targeting the β-clamp called griselimycin.

[7] = system: S. epidermidis MRSE (SO-SEP9-1); conditions: SO-SEP9-1, 24 h
Description: (§1) Briefly, bacterial colonies from blood agar plates were suspended and grown in Cation-Adjusted Mueller-Hinton Broth (CAMHB, […] Ca^2+, […] Mg^2+). The bacterial suspension was adjusted to 0.5 McFarland standard (∼1 × 10^8 colony-forming units (CFU)/ml) and serial diluted 1:200 in CAMHB (∼5 × 10^5 CFU/mL). […] The suspension was plated out on blood agar plates to confirm the CFU/ml. Both the microtiter plates and the blood agar plates were incubated at 37°C for 24 h.

[8] = system: S. aureus; experiment: microbe, parasite or virus in culture; conditions: 24 h
Description: as §1

[9] = system: P. aeruginosa; experiment: microbe, parasite or virus in culture; conditions: 24 h
Description: as §1

[10] = system: A. baumannii; experiment: microbe, parasite or virus in culture; conditions: 24 h
Description: as §1

[11] = system: E. cloacae; experiment: microbe, parasite or virus in culture; conditions: 24 h
Description: as §1

[12] = system: E. coli; experiment: microbe, parasite or virus in culture; conditions: 24 h
Description: as §1

[13] = system: K. pneumoniae; experiment: microbe, parasite or virus in culture; conditions: 24 h
Description: as §1

[14] = system: E. faecium; experiment: microbe, parasite or virus in culture; conditions: 24 h
Description: as §1

[15] = system: HEK293 cells
Description: HEK293 cells (6,000 cells/well) were seeded in 96-well microtiter plates. After 4 h, APIM-peptides (12–48 μg/ml) were added, and the cells were incubated without change of media for up to 4 days. Viability was measured using the 3-(4,5-dimethylthiazol-2-yl)-2,5-diphenyltetrazolium bromide (MTT) assay as described ([Gilljam et al., 2009]).
(1 picture or pasted object on this page, not shown here)

[16] = system: HaCaT keratinocytes; format: cell-based, human; conditions: betatide 2 μg/ml, 3-mm gap, similar to the uninfected cells
Description: Bacterial growth was examined by plating of supernatants.
Epithelialization was calculated from the change in the area of the gaps over time using freehand or rectangular selections in the software Fiji ImageJ 1.52p (National Institutes of Health, United States).
=(AreaofgapinDay 1-Areaofgapineachconsecutiveday)/AreaofgapinDay 1

CC[C@H](C)[C@H](NC(=O)CNC(=O)[C@H](CCCCN)NC(=O)[C@@H](NC(=O)[C@H](CC(C)C)NC(=O)[C@H](Cc1c[nH]c2ccccc12)NC(=O)[C@H](CCCNC(=N)N)NC(=O)[C@H](CC(=O)O)NC(=O)[C@H](CCSC)NC(C)=O)C(C)C)C(=O)N[C@@H](CC(C)C)C(=O)N[C@@H](CCC(N)=O)C(=O)N[C@@H](Cc1c[nH]c2ccccc12)C(=O)N[C@@H](CCCNC(=N)N)C(=O)N[C@@H](CCCCN)C(=O)N[C@H](C(=O)N[C@@H](CCCNC(=N)N)C(=O)N[C@@H](CCCNC(=N)N)C(=O)N[C@@H](CCCNC(=N)N)C(=O)N[C@@H](CCCNC(=N)N)C(=O)N[C@@H](CCCNC(=N)N)C(=O)N[C@@H](CCCNC(=N)N)C(=O)N[C@@H](CCCNC(=N)N)C(=O)N[C@@H](CCCNC(=N)N)C(=O)N[C@@H](CCCNC(=N)N)C(=O)N[C@@H](CCCNC(=N)N)C(=O)N[C@@H](CCCNC(=N)N)C(N)=O)[C@@H](C)CC [betatide] (Ac-MDRWLVKGILQWRKIRRRRRRRRRRR-NH2)
Reduction of mutation frequency E. coli (20 μg/ml) [1]: ++++
reduction of MIC by changes in the linker region ([2]; from Table 2): ~2 ×
reduction of MIC by amidation of the C-termini ([2]; unpublished data): ~4 ×
concentration tolerated by uninfected HaCaT cells [3]: up to 40 μg/ml
inhibition of growth of E. coli (OD 600 nm) ([4]; 60 µg/mL, over 24 hours, Supplementary Figure S1): lowest OD after 8 hours
Reduction of viability E. coli (60 μg/ml) ([4]; 60 μg/ml peptide, OD600 every hour over 24 h, relative to untreated control): ++++
reduction in intracellular bacterial load ([5]; betatide 24 μg/ml for 16 h, MOI 100, 3 h infection, extracellular bacteria killed by gentamicin, compared to untreated control): 4 ×
intracellular bacterial load (CFU) ([5]; concentrations of betatide lower than 24 μg/ml, 16 h): did not cause a significant reduction in CFU
increase in MIC [6]: 2 ×
MIC S. epidermidis MRSE [7]: 16 µg/mL (≈ 4.32 µM)
MIC for MRSE in DMEM [7]: 0.25 µg/mL
MIC [8]: 32 µg/mL (≈ 8.65 µM)
MIC ([8]; Clinical isolate SO-SAU19-1 (MRSA), CAMHB, three independent experiments): 16 µg/mL (≈ 4.32 µM)
MIC ([8]; Reference strain ATCC 29213, CAMHB, three independent experiments): 16 µg/mL (≈ 4.32 µM)
MIC [9]: 16 µg/mL (≈ 4.32 µM)
MIC [10]: 8 µg/mL (≈ 2.16 µM)
MIC ([10]; Clinical isolate SO-ABA19-1 (ESBL-CARBA-D), CAMHB, three independent experiments): 8 µg/mL (≈ 2.16 µM)
MIC [11]: 16 µg/mL (≈ 4.32 µM)
MIC [12]: 16 µg/mL (≈ 4.32 µM)
MIC ([12]; Clinical isolate SO-ECO19-1 (ESBL-CARB-A(CTX-M-24)/D(OXA-48)), CAMHB, three independent experiments): 16 µg/mL (≈ 4.32 µM)
MIC E. coli ([12]; K-12 MG1655, CLSI broth microdilution, CAMHB, 37°C, visible growth, net peptide concentration): 16 µg/mL (≈ 4.32 µM)
MIC [13]: 16 µg/mL (≈ 4.32 µM)
MIC [14]: 8 µg/mL (≈ 2.16 µM)
Reduction of viability HEK293 (24 μg/ml) [15]: +
epithelialization of MRSE-infected HaCaT cells [16]: completed at day 4
